# According to US9951366B2, “Cell-free protein synthesis method and device using a eukaryotic cell lysate in the presence of a caspase inhibitor and the use of a caspase inhibitor for increasing the yield and/or the stability of the synthesized proteins in such a method” (Fraunhofer-Gesellschaft zur Foerderung der angewandten …, priority 2013, dated 2018):
# Experiments:
# [1] = system: cell-free eukaryotic translation system on the basis of a cell extract from Spodoptera frugiperda (Sf21) insect cells; assay: Influence of DTT on expression of model proteins in batch and dialysis system (autoradiograph); format: biochemical; details: with Z-VAD-FMK, 48 h
# Procedure: For this purpose, the influence of the reducing agent DTT on the synthesis performance of the batch and dialysis system with different model proteins was investigated.
# The synthesis of the glycoprotein erythropoietin (N-terminally fused to a melittin signal sequence; Mel-EPO; 20.9 kDa, unglycosylated) and of ETB (49.3 kDa), luciferase (60.6 kDa), Mel-Hb-EGF-eYFP (51 kDa) and bacteriorhodopsin (26.9 kDa) was carried out in the batch (B) and dialysis system (D) with the addition of the caspase inhibitor (Z-VAD-FMK) without (−) and with (+) the addition of DTT in the translation buffer in the presence of ^14C-leucine for 48 h, 27° C. and 600 rpm.
# Control=translation mixture without the addition of a DNA template.
# [2] = system: eukaryotic translation system on the basis of a cell extract from Spodoptera frugiperda (Sf21) insect cells; assay: Influence of irreversible and reversible caspase inhibitors on SII-eYFP synthesis, relative fluorescence intensity; format: biochemical; details: inhibitor 30 μM, 48 h, dialysis mode, compared with control dialysis mixture without inhibitor
# Procedure: Using the example of the fluorescent protein SII-eYFP, the influence of different irreversible caspase inhibitors (Z-VAD-FMK, Ac-VAD-CMK, Ac-DEVD-CMK (SEQ ID NO:1), Q-VD-OPh) and of a reversible caspase inhibitor (Ac-[…]-CHO (SEQ ID NO:10)) on the synthesis was investigated in a eukaryotic dialysis translation system.
# The translation of SII-eYFP was carried out using the DNA template pIX3.0-SII-eYFP over 48 h at 600 rpm and 27° C. in the batch and dialysis modes in the presence of different irreversible and reversible caspase inhibitors. All inhibitors were used in a concentration of 30 μM. Following the completion of translation, the different mixtures were examined in the phosphorimager system (Typhoon TRIO+ imager, GE Healthcare) for their fluorescence intensity. For this purpose, 5 μl of each translation mixture was resuspended in 25 μl PBS. Subsequently, 25 μl of this sample was pipetted into a cavity of an Ibidi slide and measured, the excitation of the samples taking place at 488 nm and the emission being measured at 526 nm.
Compound,"effect of absence of DTT on expression of model proteins (luciferase, SII-eYFP, ETB, Mel-Hb-EGF-eYFP, bacteriorhodopsin) [1]",glycosylation of Mel-EPO ([1]; with/without DTT),increase of synthesis yield of fluorescing SII-eYFP [2]
"O[C@H](CS)[C@H](O)CS (racemic) [DTT, dithiothreitol]",no negative effect,complete glycosylation of the target protein could only be achieved in the presence of DTT,
"CC(=O)N[C@@H](CC(=O)O)C(=O)N[C@@H](CCC(=O)O)C(=O)N[C@H](C(=O)N[C@@H](CC(=O)O)C(=O)CCl)C(C)C [Ac-DEVD-CMK, acetyl-Asp-Glu-Val-Asp-chloromethylketone]",,,122%
"CC(C)C(NC(=O)c1ccc2ccccc2n1)C(=O)NC(CC(=O)O)C(=O)COc1c(F)cccc1F (stereo not drawn) [Q-VD-OPh, N-(2-quinolyl)-Val-Asp-(2,6-difluorophenoxy)-methylketone]",,,77%
acetyl-Ala-Ala-Val-Ala-Leu-Leu-Pro-Ala-Val-Leu-Leu-Ala-Leu-Leu-Ala-Pro-Asp-Glu-Val-Asp-aldehyde (Ac-AAVALLPAVLLALLAPDEVD-aldehyde; SMILES CC(=O)N[C@@H](C)C(=O)N[C@@H](C)C(=O)N[C@H](C(=O)N[C@@H](C)C(=O)N[C@@H](CC(C)C)C(=O)N[C@@H](CC(C)C)C(=O)N1CCC[C@H]1C(=O)N[C@@H](C)C(=O)N[C@H](C(=O)N[C@@H](CC(C)C)C(=O)N[C@@H](CC(C)C)C(=O)N[C@@H](C)C(=O)N[C@@H](CC(C)C)C(=O)N[C@@H](CC(C)C)C(=O)N[C@@H](C)C(=O)N1CCC[C@H]1C(=O)N[C@@H](CC(=O)O)C(=O)N[C@@H](CCC(=O)O)C(=O)N[C@H](C(=O)N[C@H](C=O)CC(=O)O)C(C)C)C(C)C)C(C)C),,,53%
